[I] = hypoxanthine (inosine)
Target: T1, TLR9 (Homo sapiens, UniProt Q9NR96)
T1 construct: the primary human PDCs were thus stimulated with HSV-1 (4 MOI) or influenza (2 MOI); endogenous in cells; host or cells: primary human plasmacytoid dendritic cells from blood donors
T1 sequence (Q9NR96 26-1032): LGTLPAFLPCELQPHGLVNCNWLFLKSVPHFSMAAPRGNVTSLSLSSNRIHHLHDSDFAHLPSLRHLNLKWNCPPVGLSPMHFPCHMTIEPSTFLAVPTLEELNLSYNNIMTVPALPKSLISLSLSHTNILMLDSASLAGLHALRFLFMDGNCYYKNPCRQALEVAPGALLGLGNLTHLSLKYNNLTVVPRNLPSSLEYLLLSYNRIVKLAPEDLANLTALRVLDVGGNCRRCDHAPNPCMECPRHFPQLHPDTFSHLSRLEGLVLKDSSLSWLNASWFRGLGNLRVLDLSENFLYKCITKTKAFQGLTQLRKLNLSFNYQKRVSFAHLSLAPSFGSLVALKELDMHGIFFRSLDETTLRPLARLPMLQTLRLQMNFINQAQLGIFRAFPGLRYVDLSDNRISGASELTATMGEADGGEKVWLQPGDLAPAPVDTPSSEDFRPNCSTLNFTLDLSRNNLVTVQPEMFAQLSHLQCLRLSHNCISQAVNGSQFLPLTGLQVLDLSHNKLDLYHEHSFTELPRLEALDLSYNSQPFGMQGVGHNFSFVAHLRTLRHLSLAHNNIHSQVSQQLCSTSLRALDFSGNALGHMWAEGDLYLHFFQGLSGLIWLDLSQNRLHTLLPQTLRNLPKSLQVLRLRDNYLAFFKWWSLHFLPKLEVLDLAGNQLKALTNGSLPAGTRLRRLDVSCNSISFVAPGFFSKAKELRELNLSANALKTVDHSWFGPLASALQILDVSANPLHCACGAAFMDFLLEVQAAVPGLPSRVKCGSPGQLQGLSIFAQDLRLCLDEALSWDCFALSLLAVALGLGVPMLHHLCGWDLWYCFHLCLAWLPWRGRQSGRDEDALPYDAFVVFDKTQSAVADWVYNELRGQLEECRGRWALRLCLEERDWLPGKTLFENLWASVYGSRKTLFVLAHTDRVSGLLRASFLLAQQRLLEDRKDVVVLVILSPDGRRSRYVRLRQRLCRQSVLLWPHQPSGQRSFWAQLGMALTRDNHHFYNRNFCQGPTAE
Assay: Human PDC stimulated with HSV-1 (TLR9 ligand), IFN-α
Type: cell-based
Settings: TLR9L HSV
From the text: Human PDCs infected with herpes simplex virus type 1 (HSV-1 KOS strain) respond by producing IFN-α and this response is dependent on TLR-9 signaling. Human PDCs infected with influenza virus (FLU H1N1 strain, A/PR/8/34 from a patient in Puerto Rico 1934; See ATCC catalog VR-95) also respond by producing IFN-α, however, this response is dependent on TLR-7 signaling and independent of TLR-9. The effect of IRPs on innate immune response cytokine production by infected cells was examined. In a dose-dependent manner, the primary human PDCs were thus stimulated with HSV-1 (4 MOI) or influenza (2 MOI), either alone or in the presence of the tested IRPs. At 24 hours, supernatants were collected and cytokine levels, IFN-alpha, were measured by immunoassay.
Human PDCs from 16-18 donors were purified and infected with influenza virus (strain PR/8) or HSV-1. HSV was used at 4 MOI, while the influenza virus was used at 2 MOI. The amount of IFN-α produced by the cells was measured and compared to the amount of virus used for infection.
To further investigate the effectiveness of IRPs on TLR7 and TLR9 activation, various IRPs or control samples were assayed for immunoregulatory activity on human PDCs as described in Example 8.

“5′-TGC TCC TGG AGI GGT TGT-3′ (DNA TGCTCCTGGAGNGGTTGT; DNA, [I] at 12, backbone and methylation of C not given here) [SEQ ID NO:73]” gave an IC50 of 25 nM and an IC90 of 99 nM.

Source: US8940310B2, “Methods of treatment using TLR7 and/or TLR9 inhibitors” (Dynavax Technologies Corporation, priority 2010, dated 2015)
